Patent US20040006077A1, “Thiazine and oxazine derivatives as MMP-13 inhibitors” (priority 2002, published 2004)

What was measured:
Type in all cases: biochemical
[1] = target: T1, catalytic domain of human MMP-13 (Homo sapiens, UniProt P45452); test: Inhibition of proteolysis of thioester peptide substrate by MMP-13; details: peptide substrate Ac-Pro-Leu-Gly-thioester-Leu-Leu-Gly-OEt 100 μM, pH 7.0, absorbance at 405 nm
T1 construct: 2.5 nM of the catalytic domain of human MMP-13
Experimental: (§1) The inhibitory activity of the compounds of formula (I) according to the invention with respect to matrix metalloprotease-13 is evaluated by testing the ability of the compounds of the invention to inhibit the proteolysis of a peptide substrate with MMP-13.
(§2) The peptide substrate used in the test is the following peptide: Ac-Pro-Leu-Gly-thioester-Leu-Leu-Gly-OEt.
The inhibitory activity of a compound of formula (I) according to the invention is expressed as the IC50 value, which is the concentration of inhibitor for which an inhibition of 50% of the activity of the matrix metalloprotease under consideration is observed.
To carry out this test, a reaction medium of 100 μt volume is prepared, containing: 50 mM of HEPES buffer, 10 mM of CaCl2 and 1 mM of 5,5′-dithiobis-(2-nitrobenzoic acid) (DTNB), and 100 μM of substrate, the pH being adjusted to 7.0.
Increasing concentrations of the inhibitory compound present in a 2.0% DMSO solution and 2.5 nM of the catalytic domain of human MMP-13 are added to the test samples.
(§3) The concentrations of inhibitors present in the test samples range from 100 μM to 0.5 nM. The measurement of the proteolysis of the substrate peptide is monitored by measuring the absorbance at 405 nm using a spectrophotometer for reading microplates, at the laboratory temperature, the measurements being carried out continuously for 10 to 15 minutes.
The IC50 values are calculated from a curve in which the percentage of the catalytic activity relative to the control is represented on the X-axis and the concentration of inhibitor is represented on the Y-axis.

[2] = target: T2, MMP-1 (Homo sapiens, UniProt P03956); test: MMP-13 test adapted to MMP-1
T2 sequence (P03956 100-469): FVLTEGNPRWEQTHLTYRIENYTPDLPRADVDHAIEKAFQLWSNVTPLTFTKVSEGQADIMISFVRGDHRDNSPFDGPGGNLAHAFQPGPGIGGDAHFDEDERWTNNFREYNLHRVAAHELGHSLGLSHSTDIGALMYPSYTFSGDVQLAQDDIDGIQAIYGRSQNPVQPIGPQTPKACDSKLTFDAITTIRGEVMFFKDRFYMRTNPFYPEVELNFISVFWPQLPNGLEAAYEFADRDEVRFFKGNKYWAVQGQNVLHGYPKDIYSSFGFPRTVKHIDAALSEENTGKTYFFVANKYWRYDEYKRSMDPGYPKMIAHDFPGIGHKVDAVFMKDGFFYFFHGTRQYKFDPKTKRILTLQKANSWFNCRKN

[3] = target: MMP-3 (Homo sapiens, UniProt P08254); test: MMP-13 test adapted to MMP-3
Chain of MMP-3 (P08254 100-477, species assumed): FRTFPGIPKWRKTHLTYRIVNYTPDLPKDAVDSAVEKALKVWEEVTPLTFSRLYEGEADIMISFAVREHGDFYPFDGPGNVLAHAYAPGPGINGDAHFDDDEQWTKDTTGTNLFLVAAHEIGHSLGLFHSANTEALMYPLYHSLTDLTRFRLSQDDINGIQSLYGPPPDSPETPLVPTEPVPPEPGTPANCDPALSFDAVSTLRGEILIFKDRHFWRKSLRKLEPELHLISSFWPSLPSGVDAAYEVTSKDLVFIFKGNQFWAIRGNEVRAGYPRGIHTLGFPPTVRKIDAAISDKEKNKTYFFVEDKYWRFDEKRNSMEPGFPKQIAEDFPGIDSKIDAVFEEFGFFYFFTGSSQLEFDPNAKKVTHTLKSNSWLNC
Experimental: as §1, §2
(§4) The inhibitory activity of a compound of formula (I) according to the invention is expressed as the IC50 value, which is the concentration of inhibitor for which an inhibition of 50% of the activity of the matrix metalloprotease under consideration is observed. […]
as §3
(§5) The IC50 values are calculated from a curve in which the percentage of the catalytic activity relative to the control is represented on the X-axis and the concentration of inhibitor is represented on the Y-axis. […]

[4] = target: T3, MMP-7 (Homo sapiens, UniProt P09237); test: MMP-13 test adapted to MMP-7
T3 sequence (P09237 95-267): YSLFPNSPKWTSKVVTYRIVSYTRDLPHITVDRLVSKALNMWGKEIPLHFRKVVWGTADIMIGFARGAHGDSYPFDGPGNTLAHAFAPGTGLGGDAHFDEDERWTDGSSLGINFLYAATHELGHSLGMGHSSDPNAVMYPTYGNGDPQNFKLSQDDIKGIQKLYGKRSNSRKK
Experimental: as §1, §2, §4, §3, §5

SMILES	IC50 [1]	IC50 [2]	IC50 [3]	IC50 [4]
COc1ccc(CNC(=O)c2ccc3sc(=O)n(Cc4ccccc4)c(=O)c3c2)cc1 [Example 1, 3-Benzyl-2,4-dioxo-3,4-dihydro-2H-benz[e][1,3]thiazine-6-carboxylic acid 4-methoxy benzylamide]	0.037 µM	30 µM	18 µM	30 µM
COc1ccc(CNC(=O)c2ccc3oc(=O)n(Cc4ccc(OC)cc4)c(=O)c3c2)cc1 [Example 2]	0.063 µM	–	–	–
O=C(O)c1ccc(Cn2c(=O)sc3ccc(C#CCc4ccccc4)cc3c2=O)cc1 [Example 3, 4-[2,4-Dioxo-6-(3-phenyl-prop-1ynyl)-4H-1,3-benzothiazin-3-ylmethyl]-benzoic acid]	0.0012 µM	–	–	–
